Test results as given in ChEMBL document CHEMBL5257032, “Therapeutic potential of coumarins as antiviral agents” (Eur J Med Chem, 2016).
Values after ≈ are worked out from the molar mass of the structure shown.

Columns and labels:
[1] = tested on: Herpesviridae sp.; test: Antiviral activity against Kaposi's sarcoma-associated herpesvirus; type: functional, organism-based
[2] = tested on: Hepatitis B virus; test: Antiviral activity against HBV; type: functional, organism-based
[3] = tested on: Human alphaherpesvirus 1; test: Antiviral activity against Herpes simplex virus 1; type: functional, organism-based
[4] = tested on: Human alphaherpesvirus 2; test: Antiviral activity against Herpes simplex virus 2; type: functional, organism-based
[5] = tested on: Human alphaherpesvirus 1; test: Antiviral activity against Herpes simplex virus 1 assessed as inhibition rate at 10 ug/ml relative to control; type: functional
[6] = tested on: Human alphaherpesvirus 1; test: Antiviral activity against Herpes simplex virus 1 assessed as inhibition rate at 5 ug/ml relative to control; type: functional
[7] = tested on: Human alphaherpesvirus 1; test: Antiviral activity against Herpes simplex virus 1 assessed as inhibition rate at 2.5 ug/ml relative to control; type: functional
[8] = tested on: Chikungunya virus; test: Antiviral activity against CHIKV; type: functional, organism-based
[9] = Selectivity index, ratio of CC50 for cytotoxicity against human Ava5 cells to EC50 for antiviral activity against HCV; type: toxicity, cell-based; conditions: read-out: Ratio CC50/EC50
[10] = tested on: Chikungunya virus; test: Antiviral activity against CHIKV virus by CHIKV-Rluc assay; type: functional, organism-based
[11] = tested on: Semliki Forest virus; test: Antiviral activity against SFV; type: functional, organism-based

C=CC(C)(C)c1cc2cc3c(cc2oc1=O)OC(C(C)(C)OC(C)=O)C3 (configuration not stated) [RUTAMARIN]
EC50 [1]: 1.62 µM

COc1c(OC/C=C(\C)CCC=C(C)C)ccc2ccc(=O)oc12 [COLLININ]
IC50 [2]: 17.1 µg/mL (≈ 52.1 µM)

COC1=CC(=O)c2cc(C)cc(-c3c(OC)cc(OC)c4ccc(=O)oc34)c2C1=O
EC50 [3]: 10 µg/mL (≈ 24.6 µM) | EC50 [4]: 10 µg/mL (≈ 24.6 µM)

CC(=O)O[C@@H]1CC[C@]2(C)[C@H](CC[C@](C)(O)[C@@H]2COc2ccc3ccc(=O)oc3c2)C1(C)C
EC50 [3]: 38 µg/mL (≈ 85.9 µM) | inhibition at 10 µg/mL [5]: 98% | inhibition at 5 µg/mL [6]: 80% | inhibition at 2.5 µg/mL [7]: 65%

CCN(CC)c1ccc2cc(C(=O)c3ccsc3)c(=O)oc2c1
IC50 [8]: 5.1 µM

COc1cc(NCc2cc3ccccc3oc2=O)cc(OC)c1OC
selectivity ratio [9]: 10

CCN(CC)c1ccc2cc(-c3nc4ccccc4n3C)c(=O)oc2c1
IC50 [10]: 6.4 µM | IC50 [11]: 0.4 µM
